Reference: US20220395481A1, “BACTERIOSTATIC COMPOSITION, PREPARATION METHOD THEREFOR, AND USE THEREOF” (SHENZHEN EULIKAN BIOTECHNOLOGY CO., LTD, priority 2020, published 2022)
Where two headings read alike, the source gives them in different places.

Tests used:
[1] = test system: Candida albicans ATCC 10231; test: Inhibition rate after 20 minutes of action, Appendix C of GB 15979-2002; format: cell-based
Description: “Inhibition rate” is the inhibition rate of bacteriostatic agents against Escherichia coli, Staphylococcus aureus, Candida albicans, or other microorganisms obtained by referring to the test methods and judgment criteria in Appendix C of GB 15979-2002 Hygienic Standard for Disposable Sanitary Products.
“Bacteriostatic effect” refers to the inhibition of bacteria, fungi, or other microorganisms by bacteriostatic agents.
The percentage concentration of each ingredient therein was the weight percentage concentration % (w/w), and the pH value of each group was 3.8.
The percentage concentration of each ingredient therein was the weight percentage concentration % (w/w), and the pH value of each group was 4.0.
According to the method described in Appendix C of GB 15979-2002 Hygienic Standard for Disposable Sanitary Products, aqueous solutions containing different ingredients were studied for their bacteriostatic effects of 20 minutes of action against Candida albicans ATCC 10231, the percentage concentration of each ingredient therein was the weight percentage concentration % (w/w), and the pH value of each group was 3.9. […]

[2] = test system: lactobacilli; conditions: cited from earlier work

Row | SMILES | Inhibition rate ([1]; Table 12, single ingredient solutions, pH 3.8, 20 minutes of action) | influence on the bacteriostatic effect of the solution containing 0.14% malic acid, 1.46% adipic acid, 0.20% sodium benzoate, 1.67% propionic acid, and 0.40% phenethyl alcohol against Candida albicans ([1]; text on Table 26, pH 4.0, Group 1 compared to Group 2) | growth of lactobacilli ([2]; concentration 0.40% (w/v)) | growth of lactobacilli ([2]; concentration 0.50% (w/v)) | growth of lactobacilli ([2]; concentration 0.70% (w/v))
1 | O=C([O-])c1ccccc1.[Na+] [0.25% sodium benzoate, sodium benzoate] | 3.73% |  |  |  | 
2 | N[C@@H](CCC(=O)O)C(=O)O [0.55% glutamic acid, glutamic acid] |  | did not affect the bacteriostatic effect |  |  | 
3 | OCCc1ccccc1 [phenethyl alcohol, phenethyl alcohol (2-phenylethanol)] |  |  | not significantly inhibited | inhibited | 
4 | CCC(=O)[O-].[Na+] [sodium propionate] |  |  | not significantly inhibited | not significantly inhibited | inhibited
